Consider 13 molecules from patent US20220127568A1, “COMPOSITIONS AND METHODS FOR GENERATING HAIR CELLS BY INHIBITING EPIGENETIC TARGETS” (Frequency Therapeutics, Inc., priority 2019, published 2022).

For data set [1] the following is noted: cited from earlier work; for Human Plasma Conc.: LSD1 inhibitors.
Data set [2] has as its system Lgr5 GFP+ cochlear progenitor cells. Description: Lgr5+ Assay (Stem Cell Proliferation Assay). Format: cell-based.
In data set [3] the test system is Lgr5+ cochlear progenitor cells. Kind of data set: Quantification of Lgr5+ cochlear progenitor cell proliferation, expansion and enrichment (3D Matrigel culture, Celigo imaging, GFP(+) cell area). It is filed as cell-based, mouse. Conditions: for proliferation or enrichment of cochlear progenitor cells: inhibitor alone.
The mark [4] stands for this setting: active concentration of LSD1 inhibitor, >= is the lower end of a range wrapped over two lines.
Setting [5] is: EZH2 inhibitors, <= is the upper end of a wrapped range.
The mark [6] stands for this setting: EZH2 inhibitors, active concentration range, <= is the upper end of a wrapped range.

“Also recorded” adds a separate entry of the source. Like-named read-outs stand apart in the source and are kept apart here.

On to `O=C(N/N=C/c1c(O)ccc2ccccc12)c1ccncc1` [AS 8351], for which the “Human In Vivo Conc” value in data set [1] (KDM inhibitors) was 1000 to 3000 µM. Also, in data set [2] (FIG. 37A: 2 μM AS 8351 + 3 μM CHIR99021 + 1 mM VPA in EFI vs EFI-C, EFI-CV), the “Lgr5 GFP(+) cell count” value is “further enhances Lgr5 GFP+ progenitor cell proliferation”. Further, in data set [2] (FIG. 37B: 2 μM AS 8351 + 3 μM CHIR99021 + 1 mM VPA in EFI vs EFI-C, EFI-CV), the “Lgr5 GFP(+) cell proliferation percentage” value is listed as “further enhances enrichment”. The “Lgr5+ Assay” value in data set [2] (KDM inhibitors, active concentration range) is 1 to 3 µM.

Take `N[C@@H]1C[C@H]1c1ccccc1` [tranylcypromine]: the “Lgr5+ progenitor cell proliferation and enrichment” value in data set [3] (combined with CHIR99021 (4 μM) and VPA (1 mM)) was “proliferate and are enriched”; in data set [3] (combined with Wnt agonist CHIR99021 (4 μM)) it was “proliferate and are enriched”. For the same molecule, the “proliferation or enrichment of cochlear progenitor cells” value (“proliferation or enrichment” below) in data set [3] is on record as “does not promote the proliferation or enrichment”. Moreover, the “Lgr5 GFP(+) cell count” value in data set [2] (FIG. 1A: 0-10 μM tranylcypromine alone in growth factors (EFI, 50 ng/mL each) vs EFI + 4 μM CHIR99021 (EFI-C) or + 1 mM VPA (EFI-CV)) is listed as “does not proliferate”; in data set [2] (FIG. 2A: 2 μM tranylcypromine + 4 μM CHIR99021 in EFI vs EFI-C, EFI-CV) it was “enhances Lgr5 GFP+ progenitor cell proliferation”; in data set [2] (FIG. 3A: 4 μM tranylcypromine + 4 μM CHIR99021 + 1 mM VPA in EFI vs EFI-CV), “enhances Lgr5 GFP+ progenitor cell proliferation”. In addition, the “Lgr5 GFP(+) cell proliferation percentage” value in data set [2] (FIG. 1B: 0-10 μM tranylcypromine alone in EFI vs EFI-C, EFI-CV) is given as “does not enrich”; in data set [2] (FIG. 2B: 2 μM tranylcypromine + 4 μM CHIR99021 in EFI vs EFI-C, EFI-CV) it was “enhances enrichment”; in data set [2] (FIG. 3B: 4 μM tranylcypromine + 4 μM CHIR99021 + 1 mM VPA in EFI vs EFI-CV), “enhances enrichment”.

With `CCN(c1cc(C#CCN2CCOCC2)cc(C(=O)NCc2c(C)cc(C)[nH]c2=O)c1C)[C@H]1CC[C@H](N(C)CCOC)CC1` [EPZ011989], the “proliferation or enrichment” value in data set [3] is listed as “does not promote proliferation or enrichment”. In addition, the “Lgr5 GFP(+) cell area” value in data set [2] (FIG. 25A: 0-10 μM EPZ011989 alone in EFI) is recorded as “does not proliferate”; in data set [2] (FIG. 26A-29A: 123 nM EPZ011989 + 4 uM CHIR99021 in EFI vs CHIR alone), “enhances Lgr5 GFP+ progenitor cell proliferation”. The “enrichment of Lgr5 GFP+ cells (y-axis: Lgr5 GFP(+) cell area)” value in data set [2] (FIG. 25B: 0-10 μM EPZ011989 alone in EFI) is “does not enrich”. Besides, the “Lgr5 GFP(+) cell area percentage” value in data set [2] (FIG. 26B-29B: 123 nM EPZ011989 + 4 uM CHIR99021 in EFI vs CHIR alone) was “enhances enrichment”.

On to `CN1CCN(C(=O)CN[C@H]2C[C@@H]2c2ccc(OCc3ccccc3)cc2)CC1.Cl.Cl` [RN-1], for which, in data set [1], the “Human Plasma Conc.” value is 1 to 100 nM. The “Lgr5+ Assay” value in data set [2] (setting [4]) turned out to be 0.041 µM.

For `NC1CC1c1ccccc1` (centres unmarked) [TCP], the “Human Plasma Conc. Cmax” value in data set [1] (human plasma Cmax, >= and <= are the ends of a wrapped range) is 30 to 200 ng/mL. Moreover, the Cmax in data set [1] (human plasma Cmax, read-out: Human Plasma Conc. Cmax (molar, in brackets)) is 225 to 1500 nM. Also, in data set [2] (active concentration of LSD1 inhibitor, <= is the upper end of a range wrapped over two lines), the “Lgr5+ Assay” value was in the range of 0.1 to 20 µM.

Consider `CCCc1cc(C)[nH]c(=O)c1CNC(=O)c1cc(-c2ccc(N3CCN(C(=O)CCOCCOCCOCCOCCOCCOCCOCCOCCOCCOCCOCCOCCNC(=O)CCCC[C@@H]4SC[C@@H]5NC(=O)N[C@@H]54)CC3)nc2)cc2c1cnn2C(C)C` [UNC 2399], for which, in data set [3], the “proliferation or enrichment” value is “does not promote the proliferation or enrichment”. For the same molecule, the “Human In Vivo Conc” value in data set [1] (setting [5]) was 0.1 to 100 µM. Further, in data set [2] (setting [6]), the “Lgr5+ Assay” value lay within 0.1 to 10 µM. The “Lgr5 GFP(+) cell area” value is reported as “does not proliferate” in data set [2] (FIG. 30A: 0-10 μM UNC 2399 alone in EFI) and “enhances Lgr5 GFP+ progenitor cell proliferation” in data set [2] (FIG. 31A: 10 μM UNC 2399 + 4 μM CHIR99021 in EFI vs CHIR alone). Moreover, the “enrichment of Lgr5 GFP+ cells (y-axis: Lgr5 GFP(+) cell area)” value in data set [2] (FIG. 30B: 0-10 μM UNC 2399 alone in EFI) is reported as “does not enrich”. Besides, the “Lgr5 GFP(+) cell area percentage” value in data set [2] (FIG. 31B: 10 μM UNC 2399 + 4 μM CHIR99021 in EFI vs CHIR alone) was “enhances enrichment”.

Regarding `CCS(=O)(=O)N1CCC(C(C)n2c(C)c(C(=O)NCc3c(OC)cc(C)[nH]c3=O)c3ccccc32)CC1` (centres unmarked) [CPI-169], in data set [1] (setting [5]), the “Human In Vivo Conc” value was 1 to 10 µM. In addition, the “Lgr5+ Assay” value in data set [2] (setting [6]) is 0.1 to 10 µM. Also, the “Lgr5 GFP(+) cell count” value in data set [2] (FIG. 11A: 1.11 μM CPI-169 + 4 μM CHIR99021 in EFI vs EFI-C, EFI-CV) is listed as “enhances Lgr5 GFP+ progenitor cell proliferation”. The “Lgr5 GFP(+) cell area” value in data set [2] (FIG. 33A: 1.11 μM CPI-169 + 4 μM CHIR99021 in EFI vs CHIR alone) is on record as “enhances Lgr5 GFP+ progenitor cell proliferation”. Moreover, the “Lgr5 GFP(+) cell area percentage” value in data set [2] (FIG. 33B: 1.11 μM CPI-169 + 4 μM CHIR99021 in EFI vs CHIR alone) is on record as “enhances enrichment”.

`c1ccc([C@@H]2C[C@H]2NC2CCNCC2)cc1` [GSK-LSD1]: the “Human Plasma Conc.” value in data set [1] was 1 to 100 nM. The “Lgr5 GFP(+) cell count” value in data set [2] (FIG. 5A: 4.5 nM GSK-LSD1 + 4 μM CHIR99021 + 1 mM VPA in EFI vs EFI-C, EFI-CV) was “enhances Lgr5 GFP+ progenitor cell proliferation”. For the same molecule, the “Lgr5 GFP(+) cell proliferation percentage” value in data set [2] (FIG. 5B: 4.5 nM GSK-LSD1 + 4 μM CHIR99021 + 1 mM VPA in EFI vs EFI-C, EFI-CV) was “enhances enrichment”. In data set [2] (setting [4]), the “Lgr5+ Assay” value is on record as ≥ 4 nM-.

Take `COc1cc(C)[nH]c(=O)c1CNC(=O)c1c(C)n([C@H](C)C2CCOCC2)c2ccccc12` [CPI-360]: the “Human In Vivo Conc” value in data set [1] (setting [5]) is 1 to 10 µM. Besides, the “Lgr5+ Assay” value in data set [2] (setting [6]) fell in the range of 0.1 to 10 µM. Further, the “Lgr5 GFP(+) cell area” value in data set [2] (FIG. 12A: 0-30 μM CPI-360 alone in EFI) is given as “does not proliferate”; in data set [2] (FIG. 13A-16A: 3.33 μM CPI-360 + 4 μM CHIR99021 in EFI vs CHIR alone), “enhances Lgr5 GFP+ progenitor cell proliferation; also recorded: enhances Lgr5 GIP+ progenitor cell proliferation”. Moreover, the entries for the “Lgr5 GFP(+) cell area percentage” value in data set [2] (FIG. 12B: 0-30 μM CPI-360 alone in EFI) and in data set [2] (FIG. 13B-16B: 3.33 μM CPI-360 + 4 μM CHIR99021 in EFI vs CHIR alone) were “does not enrich” and “enhances enrichment”, respectively.

In the case of `CCN(c1cc(-c2ccc(CN3CCOCC3)cc2)cc(C(=O)NCc2c(C)cc(C)[nH]c2=O)c1C)C1CCOCC1` [tazemetostat], the “Human In Vivo Conc” value in data set [1] (EZH2 inhibitors, >= is the lower end of a wrapped range) was “(200-1600 nM)”; in data set [1] (EZH2 inhibitors), 100 to 800 ng/mL. For the same molecule, the “Lgr5+ Assay” value in data set [2] (setting [6]) is 0.1 to 10 µM.

For the molecule `O=C(O)c1ccc(CN2CCC(CN[C@@H]3C[C@H]3c3ccccc3)CC2)cc1` [GSK2879552], in data set [3] (inhibitor 370 nM with CHIR99021 (4 μM) and VPA (1 mM)), the “Lgr5+ progenitor cell proliferation and enrichment” value is “proliferation and enrichment are enhanced”. Also, the “Lgr5 GFP(+) cell count” value in data set [2] (FIG. 4A: 370 nM GSK2879552 + 4 μM CHIR99021 + 1 mM VPA in EFI vs EFI-C, EFI-CV) is reported as “enhances Lgr5 GFP+ progenitor cell proliferation”. Moreover, the “Lgr5 GFP(+) cell proliferation percentage” value in data set [2] (FIG. 4B: 370 nM GSK2879552 + 4 μM CHIR99021 + 1 mM VPA in EFI vs EFI-C, EFI-CV) is “enhances enrichment”.

Consider `CN1CCN(C(=O)CN[C@H]2C[C@@H]2c2ccc(OCc3ccccc3)cc2)CC1.Cl.Cl` [RN-1 HCl], for which the “proliferation or enrichment” value in data set [3] is given as “does not promote the proliferation or enrichment”. The “Lgr5 GFP(+) cell count” value in data set [2] (FIG. 38A: 0-30 μM RN-1 HCl alone in EFI vs EFI-C, EFI-CV, EFI-CVT (7 μM tranylcypromine)) is recorded as “does not proliferate”; in data set [2] (FIG. 39A: 41 nM RN-1 + 4 μM CHIR99021 + 1 mM VPA in EFI vs EFI-C, EFI-CV, EFI-CVT) it was “further enhances Lgr5 GFP+ progenitor cell proliferation”. Also, the “enrichment of Lgr5 GFP+ cells (y-axis: Lgr5 GFP(+) cell count)” value is “does not enrich” in data set [2] (FIG. 38B: 0-30 μM RN-1 HCl alone in EFI vs EFI-C, EFI-CV, EFI-CVT) and “enhances enrichment” in data set [2] (FIG. 39B: 41 nM RN-1 + 4 μM CHIR99021 + 1 mM VPA in EFI vs EFI-C, EFI-CV, EFI-CVT).

For the molecule `CC(=O)O.Cc1cc(C)c(CN2CCc3c(Cl)cc(-c4c(C)noc4C)c(Cl)c3C2=O)c(=O)[nH]1` [PF 06726304 acetate], the “Lgr5+ progenitor cell enrichment” value in data set [3] (in combination with CHIR99021 (FIG. 23, FIG. 24)) is “enriched”. Moreover, the “proliferation or enrichment” value in data set [3] is recorded as “does not promote the proliferation or enrichment”. Further, the “Lgr5 GFP(+) cell area” value in data set [2] (FIG. 20A: 0-90 μM PF 06726304 acetate alone in EFI) is “does not proliferate”; in data set [2] (FIG. 21A, 22A: 370 nM PF 06726304 acetate + 4 μM CHIR99021 in EFI vs CHIR alone), “enhances Lgr5 GFP+ progenitor cell proliferation”. Also, in data set [2] (FIG. 20B: 0-90 μM PF 06726304 acetate alone in EFI), the “enrichment of Lgr5 GFP+ cells (y-axis: Lgr5 GFP(+) cell area)” value was “does not enrich”. Also, in data set [2] (FIG. 21B, 22B: 370 nM PF 06726304 acetate + 4 μM CHIR99021 in EFI vs CHIR alone), the “Lgr5 GFP(+) cell area percentage” value is recorded as “enhances enrichment”.

For orientation: Cmax means the maximum level reached in the sampled fluid or tissue.
